This note sets out measurements from ChEMBL document CHEMBL1667776, “Pharmacophore-based design, synthesis, and biological evaluation of novel chloro-pyridazine piperazines as human rhinovirus (HRV-3) inhibitors” (Bioorg Med Chem Lett, 2011).

Structures are written as SMILES. In brackets after ≈: the same amount, converted by molar mass.

One may read the EC50 as the concentration needed to bring the measured effect to its halfway point. A high value points to a less potent agent.

The subject of the assay is rhinovirus B14. Description: Antiviral activity against HRV-14. The assay is classed as functional, organism-based. Particulars: Rhinovirus B.
`CCOc1nc2cc(OCCC3CCN(c4ccc(C)nn4)CC3)ccc2o1` returned an EC50 of 0.032 µg/mL (≈ 0.0837 µM).
With `CCOC(=O)c1ccc(OCCC2CCN(c3ccc(C)nn3)CC2)cc1` [PIRODAVIR], the EC50 came to 0.0032 µg/mL (≈ 0.00866 µM).
`Cc1cc(CCCOc2c(C)cc(-c3noc(C(F)(F)F)n3)cc2C)on1` [PLECONARIL] yielded an EC50 of 0.03 µg/mL (≈ 0.0787 µM).
